Assay results taken from ChEMBL document CHEMBL5727938, “HIV protease inhibitors” (2020).
pEC50: −log10 of the molar value.

Assay: MT-4 HIV High Resolution Antiviral Assay: Assay protocol is identical to that described for the MT-4 antiviral assay with the following changes: Each drug is run in 2 series of quadruplicates with different starting concentrations for each series and 19 1.5 fold dilutions performed across the plate. […] Data is analyzed and Hill coefficients determined in Graph Pad Prism (San Diego, Calif.).

For `CC(C)(C)C[C@]1(c2ccc(-c3nncn3C(F)F)cc2F)NC(=N)N([C@H](COC(=O)C2(C(F)(F)F)CC2)c2ccc(Cl)c(-n3ncnc3C(F)F)c2)C1=O`, the pEC50 was 7.12.

`CC(C)(C)C[C@]1(c2ccc(-c3ncccn3)cc2)NC(=N)N([C@H](COC(=O)NC2(C(F)(F)F)CC2)c2ccc(Cl)c(C3=NC=NC3C(F)F)c2)C1=O` (stereo partly drawn) gave a pEC50 of 8.17.

`CC(C)(C)C[C@]1(c2ccc(-c3cnn(C(F)F)c3)c(F)c2F)NC(=N)N([C@H](COC(=O)NC2(C)CC2)c2ccc(Cl)c(-n3cncn3)c2)C1=O` showed a pEC50 of 8.06.

For `CC(C)(C)C[C@]1(c2ccc(-c3cnn(C(F)F)c3)cc2)NC(=N)N([C@H](COC(=O)NC2(C(F)(F)F)CC2)c2ccc(-n3ncnc3C(F)F)cc2)C1=O`, the pEC50 was 6.87.

In the case of `CC(C)(C)C[C@]1(c2ccc(-c3cnn(C(F)F)c3)cc2)NC(=N)N([C@H](COC(=O)NC2(C(F)(F)F)CC2)c2ccc(Cl)c(-n3ncnc3C(F)F)c2)C1=O`, the pEC50 was 7.55.

In the case of `CC(C)(C)C[C@H]1C(=O)N([C@H](COC(=O)NC2(C(F)(F)F)CC2)c2ccc(F)c(-c3ncnn3C(F)F)c2)C(=N)N1c1ccc(-c2cnn(C(F)F)c2)cc1`, the pEC50 was 7.55.

Work on `CC(C)(C)C[C@]1(c2ccc(-c3ccn(C4CC4)n3)cc2F)NC(=N)C([C@H](COC(=O)NC2(C(F)(F)F)CC2)c2ccc(Cl)c(-n3ncnc3C(F)F)c2)C1=O` (stereo partly drawn) yielded a pEC50 of 7.73.

`CC(C)(C)C[C@]1(c2ccc(-c3ccn(C4CC4)n3)cc2)NC(=N)C([C@H](COC(=O)NC2(C(F)(F)F)CC2)c2ccc(Cl)c(-n3ncnc3C(F)F)c2)C1=O` (stereo partly drawn) showed a pEC50 of 7.94.

With `CC(C)(C)C[C@]1(c2ccc(-c3cnn(C4CC4)n3)c(F)c2)NC(=N)N([C@H](COC(=O)NC2(C(F)(F)F)CC2)c2ccc(Cl)c(-c3ncnn3C(F)F)c2)C1=O` the pEC50 was 8.10.

With `CC(C)(C)C[C@H]1C(=O)N([C@H](COC(=O)NC(C)(C)C(F)F)c2ccc(Cl)c(-c3ncnn3C(F)F)c2)C(=N)N1c1ccc(-c2ncccn2)cc1` the pEC50 was 7.92.

`CC(C)(C)C[C@]1(c2ccc(-c3cnn(C4CC4)n3)cc2)NC(=N)N([C@H](COC(=O)NC2(C(F)(F)F)CC2)c2ccc(Cl)c(-c3ncnn3C(F)F)c2)C1=O` showed a pEC50 of 7.78.

Work on `CC(C)(C)C[C@]1(c2ccc(-c3cnccn3)cc2)NC(=N)C([C@H](COC(=O)NC2(C(F)(F)F)CC2)c2ccc(Cl)c(-c3ncn[nH]3)c2)C1=O` (stereo partly drawn) yielded a pEC50 of 7.09.

`CC(C)(F)C[C@H]1C(=O)N([C@H](COC(=O)NC(C)(C)C(F)F)c2ccc(Cl)c(-c3ncnn3C(F)F)c2)C(=N)N1c1ccc(Br)cc1` showed a pEC50 of 6.62.
